Tests used:
Assay type in all cases: in vivo
[1] = tested on: Perennial ryegrass/fine fescue mix; assay: Phytotoxicity via post emergence spray application (Table B2.4)
Method: (§1) The phytotoxicity of the compound of formula I to turfgrass species was tested. The compound was applied via post emergence spray to a range of warm and cool season turfgrass species at various rates and spray treatment treatment regimes. Percentage phytotoxicity assessments were taken at various timepoints.

[2] = tested on: Kentucky bluegrass (3D blend); assay: Phytotoxicity via post emergence spray application (Table B2.6); conditions: 1 appl
Method: as §1

Paspalum sp. = assay: Weed control via post emergence spray, in common centipedegrass (Table B5.1)
Method: The weed control efficacy of the compound of formula I was tested. The compound was applied via post emergence spray to a range of weeds, at various rates and spray treatment treatment regimes. Percentage weed control assessments were taken at various timepoints.

turfgrass [3] = assay: Example B2, conclusion in words; conditions: spray
Method: as §1

[4] = tested on: St. Augustinegrass v. Floratam; assay: Phytotoxicity in combination with safeners, post emergence spray (Table B4.2); conditions: no safener, 100 g ai/ha
Method: (§2) The phytotoxicity to turfgrass of the compound of formula I in combination with various safeners was tested. The combinations were applied by post emergence spray application. Percentage phytotoxicity assessments were taken at various timepoints. The safeners tested in these trials were cloquintocet-mexyl, cyprosulfamide, a compound of formula 2.3, and isoxadifen-ethyl.

turfgrass [5] = assay: Example B4, conclusion in words; conditions: in combination with a safener
Method: as §2

[6] = tested on: St. Augustinegrass v. Delmar; assay: Phytotoxicity via granule application (Table B3.1)
Method: The phytotoxicity of the compound of formula I to turfgrass species was tested. The compound was applied by distribution of granule formulations of formula I, post emergence, to turfgrass species at two rates. All treatments were watered-in 1 day after application. Percentage phytotoxicity assessments were taken at various timepoints.
Two granule formulations were made and tested. Granule A is an inert granule formulation, comprising 99.06 wt % DG Lite 150 granules, 0.14 wt % compound of formula I, 0.50 wt % Sunspray 6N, and 0.30 wt % HiSil 233. The compound of formula I was added to the DG Lite granules while blending in a Continental Rollo-mixer.
Sunspray 6N oil was then sprayed onto the granules, and HiSil added to dry excess liquid and improve granule flowability. The granules were blended in the mixer for 20-30 minutes until homogeneous, and passed through a −12/+60 mesh to remove over and under sized particles.
Granule B is a fertiliser granule formulation, comprising 54.65 wt % urea, 6.63 wt % triple super phosphate, 4.95 wt % potassion chloride, 9.91 wt % huber clay, 7.22 wt % HiSil 233, 0.16 wt % compound of formula I, […] agnique ME 181, 2.07 wt % stepfac 8180, and 11.98 wt % water. […] The remaining HiSil was added and granules dried at 40-60° C., to remove excess liquid. Finally, the granules were passed through a −12/+60 mesh to remove over and under sized particles.

## COCCOCc1nc(C(F)(F)F)ccc1C(=O)C1=C(O)C2CCC(C2)C1=O (stereo not drawn) [Formula I, 4-Hydroxy-3-[2-(2-methoxyethoxymethyl)-6-trifluoromethylpyridine-3-carbonyl]-bicyclo[3.2.1]oct-3-en-2-one]
[1]; 1 appl, 140 g ai/ha, 6 DAT
  % phytotoxicity: 4.00%
[1]; 1 appl, 140 g ai/ha, 14 DAT
  % phytotoxicity: 18.75%
[1]; 1 appl, 140 g ai/ha, 21 DAT
  % phytotoxicity: 6.75%
[1]; 1 appl, 140 g ai/ha, 28 DAT
  % phytotoxicity: 2.50%
[1]; 1 appl, 140 g ai/ha, 34 DAT
  % phytotoxicity: 0.50%
[1]; 1 appl, 140 g ai/ha, 39 DAT
  % phytotoxicity: 0.00%
[1]; 1 appl, 140 g ai/ha, 49 DAT
  % phytotoxicity: 3.75%
[1]; 1 appl, 280 g ai/ha, 6 DAT
  % phytotoxicity: 4.50%
[1]; 1 appl, 280 g ai/ha, 14 DAT
  % phytotoxicity: 25.00%
[1]; 1 appl, 280 g ai/ha, 21 DAT
  % phytotoxicity: 6.25%
[1]; 1 appl, 280 g ai/ha, 28 DAT
  % phytotoxicity: 1.75%
[1]; 1 appl, 280 g ai/ha, 34 DAT
  % phytotoxicity: 1.25%
[1]; 1 appl, 280 g ai/ha, 39 DAT
  % phytotoxicity: 0.00%
[1]; 1 appl, 280 g ai/ha, 49 DAT
  % phytotoxicity: 0.00%
[1]; 2 appl, 140 g ai/ha, 6 DAT
  % phytotoxicity: 3.00%
[1]; 2 appl, 140 g ai/ha, 14 DAT
  % phytotoxicity: 20.00%
[1]; 2 appl, 140 g ai/ha, 21 DAT
  % phytotoxicity: 6.75%
[1]; 2 appl, 140 g ai/ha, 28 DAT
  % phytotoxicity: 2.75%
[1]; 2 appl, 140 g ai/ha, 34 DAT
  % phytotoxicity: 10.50%
[1]; 2 appl, 140 g ai/ha, 39 DAT
  % phytotoxicity: 8.75%
[1]; 2 appl, 140 g ai/ha, 49 DAT
  % phytotoxicity: 4.25%
[1]; 2 appl, 280 g ai/ha, 6 DAT
  % phytotoxicity: 3.50%
[1]; 2 appl, 280 g ai/ha, 14 DAT
  % phytotoxicity: 28.75%
[1]; 2 appl, 280 g ai/ha, 21 DAT
  % phytotoxicity: 11.00%
[1]; 2 appl, 280 g ai/ha, 28 DAT
  % phytotoxicity: 17.50%
[1]; 2 appl, 280 g ai/ha, 34 DAT
  % phytotoxicity: 22.50%
[1]; 2 appl, 280 g ai/ha, 39 DAT
  % phytotoxicity: 23.75%
[1]; 2 appl, 280 g ai/ha, 49 DAT
  % phytotoxicity: 10.00%
[2]; 10 g ai/ha, 4 DAT
  % phytotoxicity: 7.50%
[2]; 10 g ai/ha, 12 DAT
  % phytotoxicity: 0.00%
[2]; 10 g ai/ha, 22 DAT
  % phytotoxicity: 0.00%
[2]; 10 g ai/ha, 33 DAT
  % phytotoxicity: 0.00%
[2]; 10 g ai/ha, 42 DAT
  % phytotoxicity: 0.00%
[2]; 10 g ai/ha, 160 DAT
  % phytotoxicity: 0.00%
[2]; 20 g ai/ha, 4 DAT
  % phytotoxicity: 2.50%
[2]; 20 g ai/ha, 12 DAT
  % phytotoxicity: 0.00%
[2]; 20 g ai/ha, 22 DAT
  % phytotoxicity: 0.00%
[2]; 20 g ai/ha, 33 DAT
  % phytotoxicity: 0.00%
[2]; 20 g ai/ha, 42 DAT
  % phytotoxicity: 0.00%
[2]; 20 g ai/ha, 160 DAT
  % phytotoxicity: 0.00%
[2]; 40 g ai/ha, 4 DAT
  % phytotoxicity: 7.50%
[2]; 40 g ai/ha, 12 DAT
  % phytotoxicity: 0.00%
[2]; 40 g ai/ha, 22 DAT
  % phytotoxicity: 0.00%
[2]; 40 g ai/ha, 33 DAT
  % phytotoxicity: 0.00%
[2]; 40 g ai/ha, 42 DAT
  % phytotoxicity: 0.00%
[2]; 40 g ai/ha, 160 DAT
  % phytotoxicity: 0.00%
[2]; 80 g ai/ha, 4 DAT
  % phytotoxicity: 7.50%
[2]; 80 g ai/ha, 12 DAT
  % phytotoxicity: 0.00%
[2]; 80 g ai/ha, 22 DAT
  % phytotoxicity: 0.00%
[2]; 80 g ai/ha, 33 DAT
  % phytotoxicity: 0.00%
[2]; 80 g ai/ha, 42 DAT
  % phytotoxicity: 0.00%
[2]; 80 g ai/ha, 160 DAT
  % phytotoxicity: 0.00%
[2]; 160 g ai/ha, 4 DAT
  % phytotoxicity: 7.50%
[2]; 160 g ai/ha, 12 DAT
  % phytotoxicity: 0.00%
[2]; 160 g ai/ha, 22 DAT
  % phytotoxicity: 0.00%
[2]; 160 g ai/ha, 33 DAT
  % phytotoxicity: 0.00%
[2]; 160 g ai/ha, 42 DAT
  % phytotoxicity: 0.00%
[2]; 160 g ai/ha, 160 DAT
  % phytotoxicity: 0.00%
Paspalum sp.; 1 appl, 140 g ai/ha, 5 DAT
  % control: 16.67%
Paspalum sp.; 1 appl, 140 g ai/ha, 13 DAT
  % control: 60.00%
Paspalum sp.; 1 appl, 140 g ai/ha, 21 DAT
  % control: 55.00%
Paspalum sp.; 1 appl, 140 g ai/ha, 27 DAT
  % control: 46.67%
Paspalum sp.; 1 appl, 140 g ai/ha, 35 DAT
  % control: 21.67%
Paspalum sp.; 1 appl, 140 g ai/ha, 42 DAT
  % control: 6.67%
Paspalum sp.; 1 appl, 140 g ai/ha, 61 DAT
  % control: 13.33%
Paspalum sp.; 1 appl, 280 g ai/ha, 5 DAT
  % control: 21.67%
Paspalum sp.; 1 appl, 280 g ai/ha, 13 DAT
  % control: 71.67%
Paspalum sp.; 1 appl, 280 g ai/ha, 21 DAT
  % control: 70.00%
Paspalum sp.; 1 appl, 280 g ai/ha, 27 DAT
  % control: 60.00%
Paspalum sp.; 1 appl, 280 g ai/ha, 35 DAT
  % control: 43.33%
Paspalum sp.; 1 appl, 280 g ai/ha, 42 DAT
  % control: 20.00%
Paspalum sp.; 1 appl, 280 g ai/ha, 61 DAT
  % control: 18.33%
Paspalum sp.; 2 appl, 140 g ai/ha, 5 DAT
  % control: 20.00%
Paspalum sp.; 2 appl, 140 g ai/ha, 13 DAT
  % control: 61.67%
Paspalum sp.; 2 appl, 140 g ai/ha, 21 DAT
  % control: 61.67%
Paspalum sp.; 2 appl, 140 g ai/ha, 27 DAT
  % control: 56.67%
Paspalum sp.; 2 appl, 140 g ai/ha, 35 DAT
  % control: 83.33%
Paspalum sp.; 2 appl, 140 g ai/ha, 42 DAT
  % control: 81.67%
Paspalum sp.; 2 appl, 140 g ai/ha, 61 DAT
  % control: 70.00%
Paspalum sp.; 2 appl, 280 g ai/ha, 5 DAT
  % control: 20.00%
Paspalum sp.; 2 appl, 280 g ai/ha, 13 DAT
  % control: 68.33%
Paspalum sp.; 2 appl, 280 g ai/ha, 21 DAT
  % control: 68.33%
Paspalum sp.; 2 appl, 280 g ai/ha, 27 DAT
  % control: 58.33%
Paspalum sp.; 2 appl, 280 g ai/ha, 35 DAT
  % control: 91.67%
Paspalum sp.; 2 appl, 280 g ai/ha, 42 DAT
  % control: 95.00%
Paspalum sp.; 2 appl, 280 g ai/ha, 61 DAT
  % control: 81.67%
Turfgrass [3]; applied at low rates
  phytotoxicity to turfgrass, in words: levels of phytotoxicity to turfgrass are acceptable
Turfgrass [3]; cool season versus warm season species
  phytotoxicity by turfgrass type, in words: lower on cool season turfgrass species
[4]; 9 DAT
  % phytotoxicity: 46.70%
[4]; 13 DAT
  % phytotoxicity: 50.00%
[4]; 19 DAT
  % phytotoxicity: 11.70%
[4]; 25 DAT
  % phytotoxicity: 5.00%
Turfgrass [5]
  phytotoxicity in combination with a safener, in words: reduces the level of phytotoxicity to turfgrass
[6]; Granule A (inert), 112 g ai/ha, 7 DAT
  % phytotoxicity: 8.30%
[6]; Granule A (inert), 112 g ai/ha, 20 DAT
  % phytotoxicity: 0.00%
[6]; Granule A (inert), 280 g ai/ha, 7 DAT
  % phytotoxicity: 20.00%
[6]; Granule A (inert), 280 g ai/ha, 11 DAT
  % phytotoxicity: 5.70%
[6]; Granule A (inert), 280 g ai/ha, 15 DAT
  % phytotoxicity: 3.30%
[6]; Granule B (fertiliser), 112 g ai/ha, 7 DAT
  % phytotoxicity: 23.30%
[6]; Granule B (fertiliser), 112 g ai/ha, 11 DAT
  % phytotoxicity: 10.00%
[6]; Granule B (fertiliser), 112 g ai/ha, 15 DAT
  % phytotoxicity: 5.00%
[6]; Granule B (fertiliser), 280 g ai/ha, 11 DAT
  % phytotoxicity: 20.00%
